According to patent US6855730B2, “3-methylidenyl-2-indolinone modulators of protein kinase” (Sugen, Inc., priority 1998, dated 2005):
Read-outs that look alike come from different tables or passages of the source.

How the values were obtained:
PDGFR-β = target: T1, PDGFR-β (Homo sapiens, UniProt P09619); experiment: Biochemical PDGFR assay (ELISA, PDGFR-β expressing NIH 3T3 cell lysate); settings: read-out: bio PDGF IC50
T1 construct: host or cells: NIH 3T3
How it was run: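 Phosphorylation was read by ELISA (anti-phosphotyrosine serum, peroxidase secondary, ABTS at 410 nm) after a 30 min room-temperature reaction with 20 μM ATP, EDTA-stopped. Kinase was lysate-derived PDGFR-β (NIH 3T3) immobilised via 28D4C10 antibody, compound added 30 min before ATP.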

[1] = target: Myc-GyrB-FGFR fusion protein (Homo sapiens, UniProt P11362); experiment: Biochemical FGFR assay (ELISA)
Myc-GyrB-FGFR fusion protein, sequence (P11362 478-767 limits assumed): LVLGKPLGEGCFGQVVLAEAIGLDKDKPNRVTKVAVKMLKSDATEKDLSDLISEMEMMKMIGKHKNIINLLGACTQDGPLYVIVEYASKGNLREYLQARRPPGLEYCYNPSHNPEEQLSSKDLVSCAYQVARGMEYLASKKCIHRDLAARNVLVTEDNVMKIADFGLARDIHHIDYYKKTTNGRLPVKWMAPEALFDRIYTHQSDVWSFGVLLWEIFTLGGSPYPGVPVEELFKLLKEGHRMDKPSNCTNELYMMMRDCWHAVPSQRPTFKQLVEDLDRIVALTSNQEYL

T1 sequence (P09619 33-1106): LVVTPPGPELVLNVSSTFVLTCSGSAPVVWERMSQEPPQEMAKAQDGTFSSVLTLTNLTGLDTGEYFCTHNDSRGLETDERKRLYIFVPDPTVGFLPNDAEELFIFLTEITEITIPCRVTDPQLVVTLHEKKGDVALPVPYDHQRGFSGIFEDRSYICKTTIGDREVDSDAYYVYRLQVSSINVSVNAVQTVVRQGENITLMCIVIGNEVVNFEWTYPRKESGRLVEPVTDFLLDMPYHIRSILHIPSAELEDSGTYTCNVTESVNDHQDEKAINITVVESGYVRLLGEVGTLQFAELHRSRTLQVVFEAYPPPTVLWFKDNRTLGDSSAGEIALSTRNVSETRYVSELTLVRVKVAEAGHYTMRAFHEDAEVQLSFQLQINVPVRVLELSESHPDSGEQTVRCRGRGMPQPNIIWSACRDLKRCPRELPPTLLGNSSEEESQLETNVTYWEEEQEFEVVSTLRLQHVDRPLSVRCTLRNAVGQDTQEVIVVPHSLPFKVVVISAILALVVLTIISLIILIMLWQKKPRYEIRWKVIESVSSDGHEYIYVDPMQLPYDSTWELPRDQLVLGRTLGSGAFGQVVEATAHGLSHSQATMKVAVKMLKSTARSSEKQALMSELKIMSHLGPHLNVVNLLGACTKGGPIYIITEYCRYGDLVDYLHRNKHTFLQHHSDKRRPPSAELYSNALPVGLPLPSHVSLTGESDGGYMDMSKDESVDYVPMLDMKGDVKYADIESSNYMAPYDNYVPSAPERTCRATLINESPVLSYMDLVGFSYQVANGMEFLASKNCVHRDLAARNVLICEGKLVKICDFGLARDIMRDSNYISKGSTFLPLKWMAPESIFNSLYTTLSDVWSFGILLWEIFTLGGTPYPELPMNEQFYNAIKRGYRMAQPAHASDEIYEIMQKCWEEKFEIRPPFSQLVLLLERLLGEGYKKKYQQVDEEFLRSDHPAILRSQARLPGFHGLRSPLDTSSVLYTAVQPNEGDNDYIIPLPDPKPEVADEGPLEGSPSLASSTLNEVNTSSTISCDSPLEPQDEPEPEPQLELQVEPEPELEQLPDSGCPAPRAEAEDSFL

Structure (SMILES)	IC50 ([1]; read-out: bio fgfR1 IC50)	IC50 (PDGFR-β)	IC50 ([1]; bio fgfR1 IC50)
COc1ccc(-c2ccc3c(c2)NC(=O)/C3=C\c2[nH]c3c(c2CCC(=O)O)CCCC3)cc1 [Example 205, 3-{2-[6-(4-Methoxyphenyl)-2-oxo-1,2-dihydro-indol-3-ylidenemethyl]-4,5,6,7-tetrahydro-1H-indol-3-yl}-propionic acid]	2.02 µM	5.43 µM	
O=C(O)CCc1c(/C=C2\C(=O)Nc3cc(-c4ccccc4)ccc32)[nH]c2c1CCCC2 [Example 206, 3-[2-(2-oxo-6-phenyl-1,2-dihydroindol-3-ylidenemethyl)-4,5,6,7-tetrahydro-1H-indol-3-yl]-propionic acid]	1.18 µM	0.04 µM	
Cc1c[nH]c(/C=C2\C(=O)Nc3ccccc32)c1CCC(=O)O [Example 215, 3-[4-Methyl-2-(2-oxo-1,2-dihydroindol-3-ylidenemethyl)-1H-pyrrol-3-yl]-propionic acid]		0.5 µM	0.07 µM

Second part, led by results:

IC50 ([1]; read-out: bio fgfR1 IC50)	Structure (SMILES)	IC50 (PDGFR-β)	IC50 ([1]; bio fgfR1 IC50)
30.2 µM	O=C(O)CCc1ccccc1/C=C1/C(=O)Nc2ccccc21 [Example 214, 3-[2-(2-Oxo-1,2-dihydroindol-3-ylidenemethyl)-phenyl]-propionic acid]	> 100 µM	
1.22 µM	COc1cccc(-c2ccc3c(c2)NC(=O)/C3=C\c2[nH]cc(C)c2CCC(=O)O)c1 [Example 223, 3-{2-[6-(3-Methoxyphenyl)-2-oxo-1,2-dihydro-indol-3-ylidenemethyl]-4-methyl-1H-pyrrol-3-yl}-propionic acid]	0.781 µM	
4.24 µM	CCOc1cccc(-c2ccc3c(c2)NC(=O)/C3=C\c2[nH]cc(C)c2CCC(=O)O)c1 [Example 224, 3-{2-[6-(3-Ethoxyphenyl)-2-oxo-1,2-dihydro-indol-3-ylidenemethyl]-4-methyl-1H-pyrrol-3-yl}-propionic acid]	2.38 µM	
